Measured values as given in ChEMBL document CHEMBL3232812, “In-vitro anti-proliferative and anti-oxidant activity of galangin, fisetin and quercetin: role of localization and intermolecular interaction in model membrane” (Eur J Med Chem, 2014).
Values after ≈ are worked out from the molar mass of the structure shown. Active and inactive are the calls of the source. The rule behind the calls is not given here.

Experiments:
[1] = Binding affinity DPPC multilamellar vesicles assessed as chemical shift at 1:5 compound/lipid ratio at 323 K by nuclear magnetic resonance analysis
[2] = Binding affinity DPPC multilamellar vesicles assessed as main transition temperature at 1:2 compound/lipid ratio after 2 hrs by differential scanning calorimetry method (reference value: 41.98 degC)
[3] = test system: MCF7; test: Antiproliferative activity against human MCF7 cells assessed as cell growth at 10^-4 ug/ml after 48 hrs by SRB assay relative to control; format: functional; conditions: MCF7, 48 h, read-out: Activity
[4] = test system: HepG2; test: Antiproliferative activity against human HepG2 cells assessed as cell growth at 10^-4 ug/ml after 48 hrs by SRB assay relative to control; format: functional; conditions: HepG2, 48 h, read-out: Activity
[5] = Binding affinity DPPC multilamellar vesicles after 2 hrs by centrifugation method; format: physicochemical
[6] = Binding affinity DPPC multilamellar vesicles assessed as chemical shift at 1:5 compound/lipid ratio at 333 K by nuclear magnetic resonance analysis
[7] = Binding affinity DPPC multilamellar vesicles assessed as main transition temperature at 1:20 compound/lipid ratio after 2 hrs by differential scanning calorimetry method (reference value: 41.98 degC)
[8] = test system: K562; test: Antiproliferative activity against human K562 cells assessed as cell growth at 10^-4 ug/ml after 48 hrs by SRB assay relative to control; format: functional; conditions: K562, 48 h, read-out: Activity
[9] = Binding affinity DPPC multilamellar vesicles assessed as main transition temperature at 1:5 compound/lipid ratio after 2 hrs by differential scanning calorimetry method (reference value: 41.98 degC)
[10] = Binding affinity DPPC multilamellar vesicles assessed as main transition temperature at 1:10 compound/lipid ratio after 2 hrs by differential scanning calorimetry method (reference value: 41.98 degC)
[11] = Binding affinity DPPC multilamellar vesicles assessed as chemical shift at 1:5 compound/lipid ratio at 303 K by nuclear magnetic resonance analysis
[12] = Binding affinity to 0.5 mg/ml of DPPC multilamellar vesicles at 100 uM after 2 hrs by centrifugation method; format: physicochemical
[13] = test system: Radical scavenging activity; test: Antioxidant activity assessed as DPPH radical scavenging activity after 30 mins; format: functional
[14] = Binding affinity DPPC multilamellar vesicles assessed as pre-transition temperature at 1:20 compound/lipid ratio after 2 hrs by differential scanning calorimetry method (reference value: 34.10 degC)
[15] = Binding affinity DPPC multilamellar vesicles assessed as pre-transition temperature at 1:10 compound/lipid ratio after 2 hrs by differential scanning calorimetry method (reference value: 34.10 degC)

Question: Which results are given for `O=c1c(O)c(-c2ccccc2)oc2cc(O)cc(O)c12` [GALANGIN]?
Answer: Activity [1]: Active; T [2]: 36.5 °C; growth at 0.0001 µg/mL [3]: 68.2%; growth at 0.0001 µg/mL [4]: 23.7%; Kapp [5]: 16701 M⁻¹; Activity [6]: Active; T [7]: 38.7 °C; growth at 0.0001 µg/mL [8]: 74.8%; T [9]: 37.6 °C; T [10]: 37.9 °C; Activity [11]: Active; Activity [12]: 60%; IC50 [13]: 11.4 µg/mL (≈ 42.2 µM)

Question: With `O=c1c(O)c(-c2ccc(O)c(O)c2)oc2cc(O)cc(O)c12` [QUERCETIN] as the compound, how does the Activity [1] read?
Answer: Its Activity is “Active”.

Question: What about the T [2] of the same compound?
Answer: Its T is 41 °C.

Question: What about the growth at 0.0001 µg/mL [3] of the same compound?
Answer: Its growth at 0.0001 µg/mL is 8.3%.

Question: And the growth at 0.0001 µg/mL [4]?
Answer: The growth at 0.0001 µg/mL was -5.4%.

Question: And the Kapp [5]?
Answer: Its Kapp is 10710 M⁻¹.

Question: What about the Activity [6] of the same compound?
Answer: The Activity was “Active”.

Question: What about the T [7] of the same compound?
Answer: Its T is 40.2 °C.

Question: What about the growth at 0.0001 µg/mL [8] of the same compound?
Answer: The growth at 0.0001 µg/mL was 12.4%.

Question: What about the T [9] of the same compound?
Answer: Its T is 39.6 °C.

Question: What about the T [10] of the same compound?
Answer: Its T is 39.7 °C.

Question: What about the Activity [11] of the same compound?
Answer: The Activity was “Active”.

Question: What about the Activity [12] of the same compound?
Answer: The Activity was 60%.

Question: And the IC50 [13]?
Answer: The IC50 was 9.14 µg/mL (≈ 30.2 µM).

Question: With `O=c1c(O)c(-c2ccc(O)c(O)c2)oc2cc(O)ccc12` [FISETIN] as the compound, how does the Activity [1] read?
Answer: Its Activity is “Active”.

Question: And the T [14]?
Answer: The T was 30.1 °C.

Question: And the T [2]?
Answer: Its T is 39.2 °C.

Question: And the growth at 0.0001 µg/mL [3]?
Answer: Its growth at 0.0001 µg/mL is 47.1%.

Question: And the growth at 0.0001 µg/mL [4]?
Answer: The growth at 0.0001 µg/mL was 62.8%.

Question: What about the Kapp [5] of the same compound?
Answer: The Kapp was 10438 M⁻¹.

Question: And the Activity [6]?
Answer: Its Activity is “Active”.

Question: And the T [7]?
Answer: The T was 40.8 °C.

Question: What about the growth at 0.0001 µg/mL [8] of the same compound?
Answer: The growth at 0.0001 µg/mL was 33.7%.

Question: What about the T [9] of the same compound?
Answer: The T was 38.3 °C.

Question: And the T [10]?
Answer: The T was 39.3 °C.

Question: What about the Activity [11] of the same compound?
Answer: The Activity was “Active”.

Question: And the T [15]?
Answer: Its T is 26.2 °C.

Question: What about the Activity [12] of the same compound?
Answer: Its Activity is 60%.

Question: And the IC50 [13]?
Answer: The IC50 was 9.26 µg/mL (≈ 32.4 µM).
